Converted amounts (≈) assume the structure as drawn.
Legend:
[1] = tested on: HCMV recombinant mutant virus (RV145); experiment: microbe, parasite or virus in culture; type: cell-based, human cytomegalovirus; conditions: for IC50: Human betaherpesvirus 5, read-out: IC50 ug/ml HCMV, HCMV
From the text: Microtiter plate assay. Ninety-six well plate cultures of human foreskin fibroblasts are infected in the presence of inhibitor compound with a HCMV recombinant mutant virus whose genome contains the prokaryotic beta-glucuronidase gene (Jefferson, R. A., S. M. Burgess, and D. Hirsh. 1986. Beta-glucuronidase from Escherichia coli as a gene fusion marker. Proc. Natl. Acad. Sci. USA 83:8447-8451) whose expression is controlled by a viral promoter. An example of such a virus is RV145 (Jones, T. R., V. P. Muzithras, and Y. Gluzman. 1991. Replacement mutagenesis of the human cytomegalovirus genome: US10 and US11 gene products are nonessential. J. Virol. 65:5860-5872). Since it is under the control of a viral promoter, beta-glucuronidase expression is an indirect indicator of growth and replication of HCMV in this assay. At 96 hours post-infection, the infected cell lysates are prepared (using 50 mM sodium phosphate [pH7.0]containing 0.1% Triton X-100 and 0.1% sarkosyl) and assayed for beta-glucuronidase activity using a substrate for the enzyme which when cleaved yields either a product which can be measured […] in a spectrophotometer or fluorescently in a microfluorimeter. Examples of such substrates are p-nitrophenyl-beta-D-glucuronide and methylumbelliferylglucuronide, respectively. The presence of an antiviral compound is indicated by the reduced expression of the HCMV genome resident beta-glucuronidase gene, compared to the absence of inhibitor. […] Data from this assay generated using varying amounts of inhibitor compound is also used to estimate the IC50 of an inhibitor compound.

HSV-1 = experiment: HSV Antiviral (ELISA) Assay in Vero cells; type: cell-based, herpes simplex virus type 1; conditions: HSV-1, Vero cells; for IC50: Human alphaherpesvirus 1, read-out: IC50 (ug/ml) HSV
Outline: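 Viral replication was quantified by cell-fixed ELISA for HSV glycoprotein D, using a β-galactosidase reporter and fluorogenic umbelliferyl substrate, about 24 h after HSV-1 infection (MOI 0.006) of Vero cells. Compounds, at several concentrations, were added 30 min pre-infection. IC50 was derived from fluorescence relative to the compound-free signal.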

VZV strain Ellen = experiment: VZV Antiviral (ELISA) Assay in human foreskin fibroblast cells; type: cell-based, varicella-zoster virus
Outline: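 HFF cells infected with VZV Ellen at low multiplicity (<0.1) overnight were seeded at 3.5×10^4 cells/well in DMEM with 2% FBS plus compound and incubated three days at 37° C., 5% CO2. Viral replication was read by ELISA against glycoprotein II with β-galactosidase fluorogenic readout (ex 365/em 450 nm); IC50 relative to no-compound fluorescence.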

Row | SMILES | IC50 ug/ml HCMV [1] [µg/mL] | IC50 (ug/ml) HSV (HSV-1) [µg/mL] | IC50 (ug/ml) VZV (VZV strain Ellen) [µg/mL] | % inhibition 10 ug/ml VZV (VZV strain Ellen) [%] | IC50 [1] [µg/mL] | IC50 (HSV-1) [µg/mL] | inhibition at 10 µg/mL (VZV strain Ellen; Human alphaherpesvirus 3, Fibroblast, read-out: % inhibition 10 ug/ml VZV, 10 ug/ml) [%] | IC50 (VZV strain Ellen; Human alphaherpesvirus 3, Fibroblast, read-out: IC50 (ug/ml) VZV) [µg/mL]
1 | COc1cc(OC)c(NC(=S)Nc2ccc(NC(=O)c3ccccc3C)cc2)cc1Cl [Example 114] | 5 (≈ 11 µM) | 0.3 (≈ 0.658 µM) | >10 | 17 |  |  |  | 
2 | COc1cc(OC)c(NC(=S)Nc2ccc(NC(=O)c3ccccc3OC(C)=O)cc2)cc1Cl [Example 115] | 8 (≈ 16 µM) | 4 (≈ 8 µM) | 4 (≈ 8 µM) | 98 |  |  |  | 
3 | COc1cc(OC)c(NC(=S)Nc2ccc(NC(=O)c3ccc(F)cc3)cc2)cc1Cl [Example 116] | 3 (≈ 6.52 µM) | 2 (≈ 4.35 µM) | >10 | 0 |  |  |  | 
4 | COc1cc(OC)c(NC(=S)Nc2ccc(NC(=O)c3cccc(F)c3)cc2)cc1Cl [Example 117] | 3 (≈ 6.52 µM) | 0.3 (≈ 0.652 µM) | >10 | 15 |  |  |  | 
5 | COc1cc(OC)c(NC(=S)Nc2ccc(NC(=O)c3ccccc3F)cc2)cc1Cl [Example 118] | 3 (≈ 6.52 µM) | 0.15 (≈ 0.326 µM) | >10 |  |  |  |  | 
6 | COc1cc(OC)c(NC(=S)Nc2ccc(NC(=O)c3ccccc3OC)cc2)cc1Cl [Example 119] | > 10 | 0.5 (≈ 1.06 µM) | >10 | 1 |  |  |  | 
7 | COc1cccc(C(=O)Nc2ccc(NC(=S)Nc3cc(Cl)c(OC)cc3OC)cc2)c1 [Example 120] | 5 (≈ 10.6 µM) | 0.8 (≈ 1.7 µM) | >10 | 25 |  |  |  | 
8 | COc1ccc(C(=O)Nc2ccc(NC(=S)Nc3cc(Cl)c(OC)cc3OC)cc2)cc1 [Example 121] | 6 (≈ 12.7 µM) | 0.3 (≈ 0.636 µM) | >10 | 0 |  |  |  | 
9 | COc1cc(OC)c(NC(=S)Nc2ccc(NC(=O)c3ccccc3)cc2)cc1Cl [Example 122] | 4 (≈ 9.05 µM) | 0.3 (≈ 0.679 µM) | >10 | 13 |  |  |  | 
10 | COc1c(Cl)cc(NC(=S)Nc2ccc(NC(=O)c3ccc(F)cc3)cc2)cc1Cl [Example 133] | 0.6 (≈ 1.29 µM) | 7 (≈ 15.1 µM) | >10 | 36 |  |  |  | 
11 | COc1cc(OC)c(NC(=S)Nc2ccc(NC(=O)c3cccc(NC(C)=O)c3)cc2)cc1Cl [Example 134] | 4 (≈ 8.02 µM) | > 10 | >10 | 50 |  |  |  | 
12 | COc1cc(OC)c(NC(=S)Nc2ccc(NC(=O)c3cccc([N+](=O)[O-])c3)cc2)cc1Cl [Example 135] | 5 (≈ 10.3 µM) | 1.5 (≈ 3.08 µM) | >10 | 0 |  |  |  | 
13 | COc1cc(OC)c(NC(=S)Nc2ccc(NC(=O)c3ccccc3C(F)(F)F)cc2)cc1Cl [Example 138] | 8 (≈ 15.7 µM) | 1 (≈ 1.96 µM) | >10 | 57 |  |  |  | 
14 | COc1cc(OC)c(NC(=S)Nc2ccc(NC(=O)c3ccccc3O)cc2)cc1Cl [Example 139] | 6 (≈ 13.1 µM) | 6 (≈ 13.1 µM) | 4 (≈ 8.73 µM) | 95 |  |  |  | 
15 | COc1cc(OC)c(NC(=S)Nc2ccc(NC(=O)c3c(F)cccc3F)cc2)cc1Cl [Example 140] | 4 (≈ 8.37 µM) | 0.15 (≈ 0.314 µM) | 10 (≈ 20.9 µM) | 65 |  |  |  | 
16 | COc1cc(OC)c(NC(=S)Nc2ccc(NC(=O)c3ccccc3Cl)cc2)cc1Cl [Example 141] | 6 (≈ 12.6 µM) | 0.25 (≈ 0.525 µM) | >10 | 40 |  |  |  | 
17 | COc1cc(OC)c(NC(=S)Nc2ccc(NC(=O)c3ccccc3Br)cc2)cc1Cl [Example 142] |  |  |  |  | 10 (≈ 19.2 µM) | 0.4 (≈ 0.768 µM) | 51 | > 15
18 | COc1cc(OC)c(NC(=S)Nc2ccc(NC(=O)c3ccccc3[N+](=O)[O-])cc2)cc1Cl [Example 143] | > 10 | 1 (≈ 2.05 µM) | >15 | 68 |  |  |  | 
19 | COc1cc(OC)c(NC(=S)Nc2ccc(NC(=O)c3cccc4ccccc34)cc2)cc1Cl [Example 157] | 8 (≈ 16.3 µM) | 0.9 (≈ 1.83 µM) | >10 | 32 |  |  |  | 
20 | CCOC(=O)Nc1cccc(C(=O)Nc2ccc(NC(=S)Nc3cc(Cl)c(OC)cc3OC)cc2)c1 [Example 180] | 1.5 (≈ 2.84 µM) | 1.3 (≈ 2.46 µM) | >10 | 36 |  |  |  | 

Row | SMILES | IC50 ug/ml HCMV [1] [µg/mL] | IC50 (ug/ml) HSV (HSV-1) [µg/mL] | IC50 (ug/ml) VZV (VZV strain Ellen) [µg/mL] | % inhibition 10 ug/ml VZV (VZV strain Ellen) [%] | IC50 [1] [µg/mL] | IC50 (HSV-1) [µg/mL] | inhibition at 10 µg/mL (VZV strain Ellen; Human alphaherpesvirus 3, Fibroblast, read-out: % inhibition 10 ug/ml VZV, 10 ug/ml) [%] | IC50 (VZV strain Ellen; Human alphaherpesvirus 3, Fibroblast, read-out: IC50 (ug/ml) VZV) [µg/mL]
21 | COc1cc(OC)c(NC(=S)Nc2ccc(NC(=O)c3ccccc3N)cc2)cc1Cl [Example 181] | >10 | 1.5 (≈ 3.28 µM) | >10 | 60 |  |  |  | 
22 | COc1cc(OC)c(NC(=S)Nc2ccc(NC(=O)c3ccccc3C(=O)O)cc2)cc1Cl [Example 184] | >50 | >50 | >10 |  |  |  |  | 
23 | COc1cc(OC)c(NC(=S)Nc2ccc(NC(=O)c3cccc(F)c3F)cc2)cc1Cl [Example 186] | >10 | 0.2 (≈ 0.418 µM) | >10 | 52 |  |  |  | 
24 | COc1cc(OC)c(NC(=S)Nc2ccc(NC(=O)c3cc(F)ccc3F)cc2)cc1Cl [Example 187] | >10 | 0.2 (≈ 0.418 µM) | >10 | 53 |  |  |  | 
25 | COc1cc(OC)c(NC(=S)Nc2ccc(NC(=O)c3ccc(F)cc3F)cc2)cc1Cl [Example 188] | >10 | 1.2 (≈ 2.51 µM) | >10 | 22 |  |  |  | 
26 | O=C(Nc1ccc(NC(=S)NCc2cccc(I)c2)cc1)c1ccccc1F [Example 661] |  |  |  |  | > 0.5 | > 10 |  | 
27 | O=C(Nc1ccc(NC(=S)NCc2cc(C(F)(F)F)ccc2F)cc1)c1ccccc1F [Example 669] |  |  |  |  | > 0.5 | > 10 |  | 
28 | O=C(Nc1ccc(NC(=S)NCc2ccc(F)c(F)c2)cc1)c1ccccc1F [Example 672] |  |  |  |  | > 0.5 | > 10 |  | 
29 | Cc1cc(CCNC(=S)Nc2ccc(NC(=O)c3ccccc3F)cc2)ccc1N(C)C [Example 673] | >0.5 | 7 (≈ 15.5 µM) |  |  |  |  |  | 
30 | O=C(Nc1ccc(NC(=S)NCc2ccc(F)c(Cl)c2)cc1)c1ccccc1F [Example 677] | >0.5 | >10 |  |  |  |  |  | 
31 | O=C(Nc1ccc(NC(=S)NCCSc2cccc(Br)c2)cc1)c1ccccc1F [Example 680] | >0.5 | >10 |  |  |  |  |  | 
32 | CC1CN(c2ccc(CNC(=S)Nc3ccc(NC(=O)c4ccccc4F)cc3)cc2C(F)(F)F)CCN1 (stereo not drawn) [Example 687] | >0.5 | 1.2 (≈ 2.2 µM) |  |  |  |  |  | 
33 | O=C(Nc1ccc(NC(=S)NCCOc2ccc(Br)cc2)cc1)c1ccccc1F [Example 695] | >3 | >10 |  |  |  |  |  | 
34 | O=C(Nc1ccc(NC(=S)NCCOc2ccc(I)cc2)cc1)c1ccccc1F [Example 696] |  |  |  |  | > 3 | 10 (≈ 18.7 µM) |  | 
35 | O=C(Nc1ccc(NC(=S)NCCc2ccc(Cl)c(Cl)c2)cc1)c1ccccc1F [Example 719] | >0.5 | >10 |  |  |  |  |  | 
36 | COc1ccccc1C(=O)Nc1ccc(NC(=S)NC(C)c2ccc(F)cc2)cc1 (stereo not drawn) [Example 752] | >0.5 | >10 |  |  |  |  |  | 
37 | CCC(NC(=S)Nc1ccc(NC(=O)c2ccccc2F)cc1)c1ccc(F)cc1 (stereo not drawn) [Example 771] | 0.4 (≈ 0.94 µM) | >10 |  |  |  |  |  | 
38 | O=C(Nc1ccc(NC(=S)NC(c2ccccc2)c2ccc(F)cc2)cc1)c1ccccc1F (stereo not drawn) [Example 772] | 0.35 (≈ 0.739 µM) | >10 |  |  |  |  |  | 
39 | O=C(Nc1ccc(NC(=S)Nc2ccc(Cl)cc2)cc1)c1ccccc1F [Example 946, N-{4-[3-(4-Chloro-phenyl)-thioureido]-phenyl}-2-fluoro-benzamide] |  |  |  |  | > 10 | > 10 |  | 

— patent US6462055B2, “Alpha-methylbenzyl-containing thiourea inhibitors of herpes viruses containing a phenylenediamine group” (Wyeth, priority 1998, dated 2002)
